Test results published in the NIST ThermoML archive (doi:10.1021/je800158z).

What was measured:
[1] = 81.5 kPa, Liquid
[2] = xn = mol fraction of the nth substance listed; details: 81.5 kPa, Liquid

CCCO [propan-1-ol]
[1]
Details | mass density [kg/m3]
293.15 K | 803.59
303.15 K | 795.53
313.15 K | 787.38
323.15 K | 778.92

CCCO [propan-1-ol] + O
mass density [kg/m3], [2]
Details | 293.15 K | 303.15 K | 313.15 K | 323.15 K
x1 = 0.0401 | 980.98 | 976.93 | 972.23 | 966.91
x1 = 0.1202 | 947.94 | 941.35 | 934.48 | 927.31
x1 = 0.2 | 918.86 | 911.37 | 903.85 | 896.05
x1 = 0.2798 | 895.6 | 887.91 | 879.98 | 871.78
x1 = 0.3599 | 877.53 | 869.57 | 861.38 | 852.93
x1 = 0.4399 | 863 | 854.86 | 846.49 | 837.86
x1 = 0.5197 | 851.12 | 842.87 | 834.37 | 825.64
x1 = 0.5986 | 840.82 | 832.48 | 823.92 | 815.16
x1 = 0.6792 | 831.69 | 823.34 | 814.76 | 805.95
x1 = 0.7485 | 824.84 | 816.47 | 807.91 | 799.13
x1 = 0.8383 | 816.74 | 808.45 | 799.96 | 791.25
x1 = 0.9052 | 811.17 | 802.94 | 794.55 | 785.94
x1 = 1 | 803.59 | 795.53 | 787.38 | 778.92

CC(C)O [propan-2-ol]
[1]
Details | mass density [kg/m3]
293.15 K | 785.1
303.15 K | 776.63
313.15 K | 767.84
323.15 K | 758.68

CC(C)O [propan-2-ol] + O
mass density [kg/m3], [2]
Details | 293.15 K | 303.15 K | 313.15 K | 323.15 K
x1 = 0.0399 | 979.61 | 976 | 971.52 | 966.2
x1 = 0.1197 | 948.88 | 941.64 | 934.18 | 926.48
x1 = 0.2017 | 916.63 | 908.64 | 900.42 | 891.98
x1 = 0.28 | 891.87 | 883.56 | 875.01 | 866.23
x1 = 0.359 | 871.15 | 862.65 | 853.89 | 844.85
x1 = 0.4384 | 854.11 | 845.46 | 836.52 | 827.31
x1 = 0.5204 | 839.36 | 830.58 | 821.54 | 812.2
x1 = 0.5995 | 827.56 | 818.72 | 809.6 | 800.16
x1 = 0.6801 | 817.14 | 808.26 | 799.08 | 789.6
x1 = 0.7552 | 808.56 | 799.67 | 790.48 | 780.98
x1 = 0.8403 | 799.95 | 791.1 | 781.97 | 772.47
x1 = 0.9225 | 792.03 | 783.34 | 774.33 | 764.97
x1 = 1 | 785.1 | 776.63 | 767.84 | 758.68

O [water] + CC(C)O
Details | mass density [kg/m3]
[2], 323.15 K, x2 = 0 | 988.03

O [water] + CCCO
Details | mass density [kg/m3]
[2], 323.15 K, x2 = 0 | 988.03
